Measurements: US4101647A, “Oral dosage form for X-ray contrast media containing a pharmaceutically acceptable base and method of use thereof” (Schering Aktiengesellschaft, priority 1975, dated 1978)

Tests used:
[1] = Blood levels of contrast medium of four patient groups after oral administration (3 g, microcrystal suspension) with various additional treatments; conditions: sodium bicarbonate given orally with the contrast agent
Description: (§1) Suspension with Various Additional Treatments
(§2) III = 10 mg. of Metoclopramide i.v.; and
IV = g. of Sodium Bicarbonate)

[2] = human, in vivo
Description: as §1, §2
IV = g. of Sodium Bicarbonate)

[3] = clinical; conditions: human, in vivo, po
Description: as §1, §2
IV = g. of Sodium Bicarbonate)

Compound | effect of simultaneous oral administration on resorption of the contrast agent [1] | resorption half life [2] | blood level within 30 minutes after ingestion, on the average, as % of the maximum value ([2]; 30 min) | Cmax (% of dose in total blood volume) ([2]; po) | tmax (time of maximum blood level) ([2]; po) | half-life [3] | Cmax ([3]; Cmax (maximum concentration in blood)) | Tmax ([3]; time after administration at which the maximum blood level is attained)
O=C(O)O [sodium bicarbonate] | accelerates resorption of the contrast agent in a statistically significant manner |  |  |  |  |  |  | 
CCN(C(=O)CCC(=O)O)c1c(I)cc(I)c(NC)c1I [succinic acid mono-2,4,6-triiodo-3-methylamino-N-ethylanilide] |  | 0.3 ± 0.1 h | 80% | 23 ± 8 % of Dose in Bl. Vol. | 2.2 ± 0.4 h | 2.3 ± 1.4 h | 114 ± 45 µg/mL | ≤ 0.9 h
